Measurements as given in PubChem BioAssay (NCI).
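Results reflect a 48-hour exposure of cells in 96-well plates to compound at five concentrations. GI50 = concentration required for 50% inhibition of growth. TGI is the concentration that stops growth completely.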

Legend:
Assay in all cases: DTP human tumour cell line panel, 48 h
786-0 renal = tested on: 786-0 renal
A498 renal = tested on: A498 renal
A549 NSCLC = tested on: A549 NSCLC
ACHN renal = tested on: ACHN renal
BT-549 breast = tested on: BT-549 breast
CAKI-1 renal = tested on: CAKI-1 renal
CCRF-CEM leukemia = tested on: CCRF-CEM leukemia
COLO 205 colon = tested on: COLO 205 colon
DU-145 prostate = tested on: DU-145 prostate
EKVX NSCLC = tested on: EKVX NSCLC
HCC-2998 colon = tested on: HCC-2998 colon
HCT-116 colon = tested on: HCT-116 colon
HCT-15 colon = tested on: HCT-15 colon
HL-60(TB) leukemia = tested on: HL-60(TB) leukemia
HOP-62 NSCLC = tested on: HOP-62 NSCLC
HOP-92 NSCLC = tested on: HOP-92 NSCLC
HS 578T breast = tested on: HS 578T breast
HT29 colon = tested on: HT29 colon
IGROV1 ovarian = tested on: IGROV1 ovarian
K-562 leukemia = tested on: K-562 leukemia
KM12 colon = tested on: KM12 colon
LOX IMVI melanoma = tested on: LOX IMVI melanoma
M14 melanoma = tested on: M14 melanoma
MALME-3M melanoma = tested on: MALME-3M melanoma
MCF7 breast = tested on: MCF7 breast
MDA-MB-231 breast = tested on: MDA-MB-231 breast
MDA-MB-435 = tested on: MDA-MB-435
MOLT-4 leukemia = tested on: MOLT-4 leukemia
NCI-H226 lung = tested on: NCI-H226 lung
NCI-H23 lung = tested on: NCI-H23 lung
NCI-H460 lung = tested on: NCI-H460 lung
NCI-H522 lung = tested on: NCI-H522 lung
NCI/ADR-RES ovarian = tested on: NCI/ADR-RES ovarian
OVCAR-3 ovarian = tested on: OVCAR-3 ovarian
OVCAR-4 ovarian = tested on: OVCAR-4 ovarian
OVCAR-5 ovarian = tested on: OVCAR-5 ovarian
OVCAR-8 ovarian = tested on: OVCAR-8 ovarian
PC-3 prostate = tested on: PC-3 prostate
RPMI-8226 leukemia = tested on: RPMI-8226 leukemia
RXF 393 renal = tested on: RXF 393 renal
SF-268 CNS = tested on: SF-268 CNS
SF-295 CNS = tested on: SF-295 CNS
SF-539 CNS = tested on: SF-539 CNS
SK-MEL-2 melanoma = tested on: SK-MEL-2 melanoma
SK-MEL-28 melanoma = tested on: SK-MEL-28 melanoma
SK-MEL-5 melanoma = tested on: SK-MEL-5 melanoma
SK-OV-3 ovarian = tested on: SK-OV-3 ovarian
SN12C renal = tested on: SN12C renal
SNB-19 CNS = tested on: SNB-19 CNS
SNB-75 CNS = tested on: SNB-75 CNS
SR leukemia = tested on: SR leukemia
SW-620 colon = tested on: SW-620 colon
T-47D breast = tested on: T-47D breast
TK-10 renal = tested on: TK-10 renal
U251 CNS = tested on: U251 CNS
UACC-257 melanoma = tested on: UACC-257 melanoma
UACC-62 melanoma = tested on: UACC-62 melanoma
UO-31 renal = tested on: UO-31 renal

Structure (SMILES): Cc1ccc(NC(=O)N2CCCCC2)cc1[N+](=O)[O-]
- GI50 (786-0 renal): > 100 µM
- TGI (786-0 renal): > 100 µM
- GI50 (A498 renal): 87.8 µM
- TGI (A498 renal): > 100 µM
- GI50 (A549 NSCLC): > 100 µM
- TGI (A549 NSCLC): > 100 µM
- GI50 (ACHN renal): > 100 µM
- TGI (ACHN renal): > 100 µM
- GI50 (BT-549 breast): > 100 µM
- TGI (BT-549 breast): > 100 µM
- GI50 (CAKI-1 renal): > 100 µM
- TGI (CAKI-1 renal): > 100 µM
- GI50 (CCRF-CEM leukemia): > 100 µM
- TGI (CCRF-CEM leukemia): > 100 µM
- GI50 (COLO 205 colon): > 100 µM
- TGI (COLO 205 colon): > 100 µM
- GI50 (DU-145 prostate): > 100 µM
- TGI (DU-145 prostate): > 100 µM
- GI50 (EKVX NSCLC): > 100 µM
- TGI (EKVX NSCLC): > 100 µM
- GI50 (HCC-2998 colon): > 100 µM
- TGI (HCC-2998 colon): > 100 µM
- GI50 (HCT-116 colon): > 100 µM
- TGI (HCT-116 colon): > 100 µM
- GI50 (HCT-15 colon): > 100 µM
- TGI (HCT-15 colon): > 100 µM
- GI50 (HL-60(TB) leukemia): > 100 µM
- TGI (HL-60(TB) leukemia): > 100 µM
- GI50 (HOP-62 NSCLC): > 100 µM
- TGI (HOP-62 NSCLC): > 100 µM
- GI50 (HOP-92 NSCLC): > 100 µM
- TGI (HOP-92 NSCLC): > 100 µM
- GI50 (HS 578T breast): > 100 µM
- TGI (HS 578T breast): > 100 µM
- GI50 (HT29 colon): > 100 µM
- TGI (HT29 colon): > 100 µM
- GI50 (IGROV1 ovarian): > 100 µM
- TGI (IGROV1 ovarian): > 100 µM
- GI50 (K-562 leukemia): > 100 µM
- TGI (K-562 leukemia): > 100 µM
- GI50 (KM12 colon): > 100 µM
- TGI (KM12 colon): > 100 µM
- GI50 (LOX IMVI melanoma): > 100 µM
- TGI (LOX IMVI melanoma): > 100 µM
- GI50 (M14 melanoma): > 100 µM
- TGI (M14 melanoma): > 100 µM
- GI50 (MALME-3M melanoma): > 100 µM
- TGI (MALME-3M melanoma): > 100 µM
- GI50 (MCF7 breast): > 100 µM
- TGI (MCF7 breast): > 100 µM
- GI50 (MDA-MB-231 breast): > 100 µM
- TGI (MDA-MB-231 breast): > 100 µM
- GI50 (MDA-MB-435): > 100 µM
- TGI (MDA-MB-435): > 100 µM
- GI50 (MOLT-4 leukemia): > 100 µM
- TGI (MOLT-4 leukemia): > 100 µM
- GI50 (NCI-H226 lung): > 100 µM
- TGI (NCI-H226 lung): > 100 µM
- GI50 (NCI-H23 lung): > 100 µM
- TGI (NCI-H23 lung): > 100 µM
- GI50 (NCI-H460 lung): > 100 µM
- TGI (NCI-H460 lung): > 100 µM
- GI50 (NCI-H522 lung): 87.1 µM
- TGI (NCI-H522 lung): > 100 µM
- GI50 (NCI/ADR-RES ovarian): > 100 µM
- TGI (NCI/ADR-RES ovarian): > 100 µM
- GI50 (OVCAR-3 ovarian): > 100 µM
- TGI (OVCAR-3 ovarian): > 100 µM
- GI50 (OVCAR-4 ovarian): > 100 µM
- TGI (OVCAR-4 ovarian): > 100 µM
- GI50 (OVCAR-5 ovarian): > 100 µM
- TGI (OVCAR-5 ovarian): > 100 µM
- GI50 (OVCAR-8 ovarian): > 100 µM
- TGI (OVCAR-8 ovarian): > 100 µM
- GI50 (PC-3 prostate): > 100 µM
- TGI (PC-3 prostate): > 100 µM
- GI50 (RPMI-8226 leukemia): 90.1 µM
- TGI (RPMI-8226 leukemia): > 100 µM
- GI50 (RXF 393 renal): > 100 µM
- TGI (RXF 393 renal): > 100 µM
- GI50 (SF-268 CNS): > 100 µM
- TGI (SF-268 CNS): > 100 µM
- GI50 (SF-295 CNS): > 100 µM
- TGI (SF-295 CNS): > 100 µM
- GI50 (SF-539 CNS): > 100 µM
- TGI (SF-539 CNS): > 100 µM
- GI50 (SK-MEL-2 melanoma): > 100 µM
- TGI (SK-MEL-2 melanoma): > 100 µM
- GI50 (SK-MEL-28 melanoma): > 100 µM
- TGI (SK-MEL-28 melanoma): > 100 µM
- GI50 (SK-MEL-5 melanoma): > 100 µM
- TGI (SK-MEL-5 melanoma): > 100 µM
- GI50 (SK-OV-3 ovarian): > 100 µM
- TGI (SK-OV-3 ovarian): > 100 µM
- GI50 (SN12C renal): > 100 µM
- TGI (SN12C renal): > 100 µM
- GI50 (SNB-19 CNS): > 100 µM
- TGI (SNB-19 CNS): > 100 µM
- GI50 (SNB-75 CNS): > 100 µM
- TGI (SNB-75 CNS): > 100 µM
- GI50 (SR leukemia): > 100 µM
- TGI (SR leukemia): > 100 µM
- GI50 (SW-620 colon): > 100 µM
- TGI (SW-620 colon): > 100 µM
- GI50 (T-47D breast): 77.1 µM
- TGI (T-47D breast): > 100 µM
- GI50 (TK-10 renal): > 100 µM
- TGI (TK-10 renal): > 100 µM
- GI50 (U251 CNS): > 100 µM
- TGI (U251 CNS): > 100 µM
- GI50 (UACC-257 melanoma): > 100 µM
- TGI (UACC-257 melanoma): > 100 µM
- GI50 (UACC-62 melanoma): > 100 µM
- TGI (UACC-62 melanoma): > 100 µM
- GI50 (UO-31 renal): > 100 µM
- TGI (UO-31 renal): > 100 µM
